Columns and labels:
[1] = target: T1, tubulin (αβ-heterodimer, bovine brain; maytansine site on β-tubulin); assay: equilibrium radioligand binding of 3H-S-methyl DM1 to tubulin-loaded liposomes (apparent Kd); set-up: species or system Bos taurus
T1 construct: with α-tubulin (αβ-heterodimer)

[2] = tested on: T2, tubulin (microtubule-assembled, in MCF7 cells); assay: 3H-paclitaxel equilibrium binding to MCF7 cells, Scatchard; format: cell-based
T2 construct: endogenous cellular tubulin in MCF7 cells; with αβ-heterodimer in microtubules

SMILES	Kd [1]	Kd [2]
COc1cc2cc(c1Cl)N(C)C(=O)C[C@H](OC(=O)[C@H](C)N(C)C(=O)CCSC)[C@]1(C)O[C@H]1[C@H](C)[C@@H]1C[C@@](O)(NC(=O)O1)[C@H](OC)/C=C/C=C(\C)C2 [S-methyl DM1]	21.5 ± 0.07 nM	–
CC(=O)O[C@H]1C(=O)[C@@]2(C)[C@H]([C@H](OC(=O)c3ccccc3)[C@]3(O)C[C@H](OC(=O)[C@H](O)[C@@H](NC(=O)c4ccccc4)c4ccccc4)C(C)=C1C3(C)C)[C@]1(OC(C)=O)CO[C@@H]1C[C@@H]2O [paclitaxel]	–	60 ± 10 nM
